Data reported in ChEMBL document CHEMBL1201862, “PubChem BioAssay data set” (2004).
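Cells were grown in 96-well plates and exposed to each compound for 48 hours at five concentrations; endpoints were interpolated linearly between bracketing concentrations, or set to the highest concentration if not reached. GI50: concentration for 50% inhibition of growth.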 Active and inactive are the calls of the source. Cut-off read from the data, not from the text of the source: active = GI50 up to about 1.1 µM and inactive = higher.

Assays:
Assay in all cases: DTP human tumour cell line panel, 48 h
[1] = system: SK-MEL-2
[2] = system: NCI-H226
[3] = system: SF-268
[4] = system: HCT-15
[5] = system: MOLT-4
[6] = system: OVCAR-5
[7] = system: HCT-116
[8] = system: HOP-62
[9] = system: ACHN
[10] = system: OVCAR-3
[11] = system: A549
[12] = system: OVCAR-4
[13] = system: HOP-92
[14] = system: LOX IMVI
[15] = system: IGROV-1
[16] = system: SF-539
[17] = system: SR

SMILES: Cc1ccc(NC(=O)CC(=O)n2nc(-c3ccccc3)c(/N=N/c3ccc(Cl)cc3)c2-c2ccccc2)cc1
- GI50 [1]: > 100 µM (inactive)
- GI50 [2]: > 100 µM (inactive)
- GI50 [3]: > 100 µM (inactive)
- GI50 [4]: 88.7 µM
- GI50 [5]: 83.9 µM (inactive)
- GI50 [6]: > 100 µM (inactive)
- GI50 [7]: 19.5 µM (inactive)
- GI50 [8]: 50.6 µM (inactive)
- GI50 [9]: 27.6 µM (inactive)
- GI50 [10]: 42.6 µM (inactive)
- GI50 [11]: 28.2 µM (inactive)
- GI50 [12]: 23.3 µM (inactive)
- GI50 [13]: 39.7 µM (inactive)
- GI50 [14]: 15.6 µM (inactive)
- GI50 [15]: 57.7 µM (inactive)
- GI50 [16]: 28.8 µM (inactive)

SMILES: Cc1ccc(S(=O)(=O)OC(C=O)C(O)C(O)COC(c2ccccc2)(c2ccccc2)c2ccccc2)cc1 (stereo unspecified)
- GI50 [1]: 16.2 µM (inactive)
- GI50 [2]: 14.9 µM (inactive)
- GI50 [3]: 19.6 µM (inactive)
- GI50 [4]: 14.1 µM
- GI50 [5]: 6.08 µM (inactive)
- GI50 [6]: 20.1 µM (inactive)
- GI50 [7]: 16.4 µM (inactive)
- GI50 [8]: 16.9 µM (inactive)
- GI50 [9]: 15.3 µM (inactive)
- GI50 [10]: 14.9 µM (inactive)
- GI50 [11]: 18.2 µM (inactive)
- GI50 [12]: 18.2 µM (inactive)
- GI50 [17]: 5.43 µM (inactive)
- GI50 [14]: 19.1 µM (inactive)
- GI50 [15]: 15.1 µM (inactive)
- GI50 [16]: 16.3 µM (inactive)

SMILES: C[Si]12OCCCN(CCO1)CCO2
- GI50 [1]: > 100 µM (inactive)
- GI50 [3]: > 100 µM (inactive)
- GI50 [5]: > 100 µM (inactive)
- GI50 [6]: > 100 µM (inactive)
- GI50 [7]: > 100 µM (inactive)
- GI50 [9]: > 100 µM (inactive)
- GI50 [10]: > 100 µM (inactive)
- GI50 [11]: > 100 µM (inactive)
- GI50 [13]: > 100 µM (inactive)
- GI50 [17]: > 100 µM (inactive)
- GI50 [15]: > 100 µM (inactive)
- GI50 [16]: > 100 µM (inactive)

SMILES: O=C(Nc1cccc(Cl)c1)c1cc2cc(/N=N/c3ccc(Br)cc3)ccc2oc1=O
- GI50 [1]: 12.9 µM (inactive)
- GI50 [3]: 14.6 µM (inactive)
- GI50 [4]: 10.2 µM
- GI50 [5]: 14.9 µM (inactive)
- GI50 [6]: 31 µM (inactive)
- GI50 [7]: 37.2 µM (inactive)
- GI50 [8]: > 100 µM (inactive)
- GI50 [9]: 23.7 µM (inactive)
- GI50 [10]: 22.8 µM (inactive)
- GI50 [11]: 90.6 µM (inactive)
- GI50 [12]: 27.7 µM (inactive)
- GI50 [13]: 37.8 µM (inactive)
- GI50 [14]: 14.4 µM (inactive)
- GI50 [15]: 51.5 µM (inactive)
- GI50 [16]: 56.2 µM (inactive)

SMILES: CSCC(COC(C)=O)(CSC)c1ccncc1
- GI50 [1]: > 100 µM (inactive)
- GI50 [3]: > 100 µM (inactive)
- GI50 [4]: > 100 µM
- GI50 [5]: > 100 µM (inactive)
- GI50 [7]: > 100 µM (inactive)
- GI50 [8]: > 100 µM (inactive)
- GI50 [9]: > 100 µM (inactive)
- GI50 [10]: > 100 µM (inactive)
- GI50 [11]: > 100 µM (inactive)
- GI50 [12]: > 100 µM (inactive)
- GI50 [17]: > 100 µM (inactive)
- GI50 [14]: > 100 µM (inactive)
- GI50 [15]: > 100 µM (inactive)
- GI50 [16]: > 100 µM (inactive)

SMILES: COc1c(OC)c(N)c2cc(C)c(=O)c(C)cc2c1N
- GI50 [1]: > 100 µM (inactive)
- GI50 [3]: > 100 µM (inactive)
- GI50 [4]: 99.8 µM
- GI50 [5]: > 100 µM (inactive)
- GI50 [6]: > 100 µM (inactive)
- GI50 [7]: 97.1 µM (inactive)
- GI50 [8]: > 100 µM (inactive)
- GI50 [9]: > 100 µM (inactive)
- GI50 [10]: > 100 µM (inactive)
- GI50 [11]: > 100 µM (inactive)
- GI50 [12]: > 100 µM (inactive)
- GI50 [13]: > 100 µM (inactive)
- GI50 [17]: 12.4 µM (inactive)
- GI50 [14]: 55.2 µM (inactive)
- GI50 [15]: > 100 µM (inactive)
- GI50 [16]: > 100 µM (inactive)

SMILES: OC1CN(OC/C=C/c2ccccc2)CC(O)C1O (stereo unspecified)
- GI50 [1]: > 100 µM (inactive)
- GI50 [2]: > 100 µM (inactive)
- GI50 [3]: > 100 µM (inactive)
- GI50 [4]: > 100 µM
- GI50 [5]: > 100 µM (inactive)
- GI50 [6]: > 100 µM (inactive)
- GI50 [7]: > 100 µM (inactive)
- GI50 [8]: > 100 µM (inactive)
- GI50 [9]: > 100 µM (inactive)
- GI50 [10]: > 100 µM (inactive)
- GI50 [11]: > 100 µM (inactive)
- GI50 [12]: > 100 µM (inactive)
- GI50 [13]: > 100 µM (inactive)
- GI50 [14]: 46.1 µM (inactive)
- GI50 [15]: > 100 µM (inactive)
- GI50 [16]: > 100 µM (inactive)

SMILES: CCOC(=O)/C(=C/c1ccccc1Br)P(=O)(OCC)OCC
- GI50 [1]: 1.84 µM (inactive)
- GI50 [2]: 3.07 µM (inactive)
- GI50 [3]: 2.9 µM (inactive)
- GI50 [4]: 1.78 µM
- GI50 [5]: 2.28 µM (inactive)
- GI50 [6]: 2.53 µM (inactive)
- GI50 [7]: 3.15 µM (inactive)
- GI50 [8]: 3.72 µM (inactive)
- GI50 [9]: 2.57 µM (inactive)
- GI50 [10]: 2.81 µM (inactive)
- GI50 [11]: 2.67 µM (inactive)
- GI50 [12]: 1.58 µM (inactive)
- GI50 [13]: 1.46 µM (inactive)
- GI50 [14]: 1.39 µM (inactive)
- GI50 [15]: 3.28 µM (inactive)
- GI50 [16]: 2.4 µM (inactive)

SMILES: Cn1cnc([N+](=O)[O-])c1Sc1nnnn1-c1ccccc1
- GI50 [1]: 14.1 µM (inactive)
- GI50 [2]: 17.3 µM (inactive)
- GI50 [3]: 19.5 µM (inactive)
- GI50 [5]: 2.17 µM (inactive)
- GI50 [6]: 17.8 µM (inactive)
- GI50 [7]: 11.3 µM (inactive)
- GI50 [8]: > 100 µM (inactive)
- GI50 [9]: 13.9 µM (inactive)
- GI50 [10]: 13.6 µM (inactive)
- GI50 [11]: 23.9 µM (inactive)
- GI50 [12]: 10.4 µM (inactive)
- GI50 [13]: 2.72 µM (inactive)
- GI50 [14]: 5.65 µM (inactive)
- GI50 [15]: 16.2 µM (inactive)
- GI50 [16]: 12.2 µM (inactive)
